Results from patent publication US20260317356A1, “SMALL MOLECULE MODULATORS OF OGG1” (AZKARRA THERAPEUTICS, INC., priority 2023, published 2026).

molecular target: hOGG1 (Homo sapiens, UniProt O15527); assay: Biochemical fluorescence assay to measure enzymatic activity of hOGG1 (OGG1/APEX IC50); parameters: Protein His-hOGG1 (12-323) was prepared; His (N); host or cells: E. coli; settings: 1 nM OGG1+2 nM APEX+6 nM dsDNA (8-oxo-dG substrate); pH 7.5; RT 40 min; read-out: OGG1/APEX IC50
Method in brief: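 His-hOGG1 (12-323, E. coli) at 1 nM with 2 nM hAPE1/APEX1, preincubated 20 min RT with compound. Then 6 nM 8-oxo-dG dsDNA substrate added, 40 min at RT in Tris pH 7.5, 100 mM KCl. TAMRA fluorescence (Ex520/Em600) converted to % inhibition vs controls; IC50 from 3-parameter fit of 10-point curve.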

Chain of hOGG1 (O15527 12-323): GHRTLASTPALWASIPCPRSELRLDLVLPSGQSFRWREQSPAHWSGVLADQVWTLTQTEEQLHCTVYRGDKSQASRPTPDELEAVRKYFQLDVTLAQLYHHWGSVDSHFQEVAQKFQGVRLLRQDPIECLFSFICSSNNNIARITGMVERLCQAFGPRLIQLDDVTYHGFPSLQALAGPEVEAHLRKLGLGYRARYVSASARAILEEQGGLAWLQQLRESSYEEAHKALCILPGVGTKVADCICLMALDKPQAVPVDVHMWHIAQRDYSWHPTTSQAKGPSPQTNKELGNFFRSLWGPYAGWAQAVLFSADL

IC50 | SMILES
100 to 1000 nM | COc1cc(NC(=O)[C@H]2CC[C@@H](N3Cc4c(C)cc(C(=O)O)cc4C3=O)CC2)ccc1C [Example 211, 2-((1s,4s)-4-(3-Methoxy-4-methylphenylcarbamoyl)cyclohexyl)-7-methyl-3-oxoisoindoline-5-carboxylic Acid]
> 10000 nM | Cc1cccc2c1CN([C@H]1CC[C@@H](C(=O)Nc3ccc(=O)n(C)c3)CC1)C2=O [Example 246, (1s,4s)-4-(4-Methyl-1-oxoisoindolin-2-yl)-N-(1-methyl-6-oxo-1,6-dihydropyridin-3-yl)cyclohexanecarboxamide]
100 to 1000 nM | COc1ccc(NC(=O)[C@H]2CC[C@@H](N3Cc4c(C)cccc4NC3=O)CC2)cc1F [Example 89, (1s,4s)-N-(3-fluoro-4-methoxyphenyl)-4-(5-methyl-2-oxo-1,2-dihydroquinazolin-3(4H)-yl)cyclohexanecarboxamide]
> 10000 nM | C=C(C)c1cccc2c1CN([C@H]1CC[C@@H](C(=O)Nc3ccc(C)c(OC)c3)CC1)C2=O [Example 157, (1s,4s)-N-(3-Methoxy-4-methylphenyl)-4-(1-oxo-4-(prop-1-en-2-yl)isoindolin-2-yl)cyclohexanecarboxamide]
< 100 nM | COc1ccc(NC(=O)[C@]2(C)CC[C@H](N3Cc4c(C)cccc4NC3=O)CC2)cc1C#N (single isomer, unassigned) [Example 107, (1s,4s)-N-(3-cyano-4-methoxyphenyl)-1-methyl-4-(5-methyl-2-oxo-1,2-dihydroquinazolin-3(4H)-yl)cyclohexanecarboxamide]
100 to 1000 nM | COc1cc(NC(=O)[C@H]2CC[C@@H](N3Cc4c(C)cc(CO)cc4C3=O)CC2)ccc1C [Example 214, (1s,4s)-4-(6-(Hydroxymethyl)-4-methyl-1-oxoisoindolin-2-yl)-N-(3-methoxy-4-methylphenyl)cyclohexanecarboxamide]
< 100 nM | COc1cc(NC(=O)[C@H]2CC[C@@H](N3Cc4c(C)ccc(C5CC5)c4NC3=O)CC2)ccc1C [Example 39, (1s,4s)-4-(8-Cyclopropyl-5-methyl-2-oxo-1,2-dihydroquinazolin-3(4H)-yl)-N-(3-methoxy-4-methylphenyl)cyclohexanecarboxamide]
100 to 1000 nM | COc1cc(NC(=O)[C@H]2CC[C@@H](N3Cc4c(Cl)cccc4NC3=O)CC2)ccc1C [Example 68, (1s,4s)-4-(5-chloro-2-oxo-1,2-dihydroquinazolin-3(4H)-yl)-N-(3-methoxy-4-methylphenyl)cyclohexanecarboxamide]
< 100 nM | COc1cc(NC(=O)[C@H]2CC[C@@H](N3Cc4c(C)ccc(CNS(C)(=O)=O)c4NC3=O)CC2)ccc1C [Example 24, (1s,4s)-N-(3-Methoxy-4-methylphenyl)-4-(5-methyl-8-(methylsulfonamidomethyl)-2-oxo-1,2-dihydroquinazolin-3(4H)-yl)cyclohexanecarboxamide]
100 to 1000 nM | COc1cc(NC(=O)[C@H]2CC[C@@H](N3Cc4c(C)cccc4C3=O)CC2)ccc1C(F)(F)F [Example 258, (1s,4s)-N-(3-Methoxy-4-(trifluoromethyl)phenyl)-4-(4-methyl-1-oxoisoindolin-2-yl)cyclohexanecarboxamide]
100 to 1000 nM | COc1cc(NC(=O)[C@H]2CC[C@@H](n3[nH]c4c(C)cc(F)cc4c3=O)CC2)ccc1C [Example 119, (1s,4s)-4-(5-Fluoro-7-methyl-3-oxo-1,3-dihydro-2H-indazol-2-yl)-N-(3-methoxy-4-methylphenyl)cyclohexane-1-carboxamide]
> 10000 nM | COc1cc(NC(=O)[C@H]2CC[C@H](n3[nH]c4c(Br)cccc4c3=O)CC2)ccc1C (single isomer, unassigned) [Example 159, (1r,4r)-4-(7-Bromo-3-oxo-1H-indazol-2(3H)-yl)-N-(3-methoxy-4-methylphenyl)cyclohexanecarboxamide]
100 to 1000 nM | C=Cc1cccc2c1CN([C@H]1CC[C@@H](C(=O)Nc3ccc(C)c(OC)c3)CC1)C2=O [Example 155, (1s,4s)-N-(3-Methoxy-4-methylphenyl)-4-(1-oxo-4-vinylisoindolin-2-yl)cyclohexanecarboxamide]
1000 to 10000 nM | COc1cc(NC(=O)[C@H]2CC[C@@H](N3Cc4c(ccc(Br)c4C)NC3=O)CC2)ccc1C [Example 63, (1s,4s)-4-(6-bromo-5-methyl-2-oxo-1,2-dihydroquinazolin-3(4H)-yl)-N-(3-methoxy-4-methylphenyl)cyclohexanecarboxamide]
< 100 nM | COc1cc(NC(=O)[C@H]2CC[C@@H](N3Cc4c(C)cccc4NC3=O)CC2)ccc1C [Example 69, (1s,4s)-N-(3-methoxy-4-methylphenyl)-4-(5-methyl-2-oxo-1,2-dihydroquinazolin-3(4H)-yl)cyclohexanecarboxamide]
< 100 nM | COc1cc(NC(=O)[C@H]2CC[C@@H](N3Cc4c(C)cnc(CN)c4NC3=O)CC2)ccc1C [Example 20, (1s,4s)-4-(8-(Aminomethyl)-5-methyl-2-oxo-1,2-dihydropyrido[3,4-d]pyrimidin-3(4H)-yl)-N-(3-methoxy-4-methylphenyl)cyclohexanecarboxamide]

IC50 | SMILES
1000 to 10000 nM | COc1cc(NC(=O)[C@H]2CC[C@@H](N3Cc4c(ccc(OCCN5CCOCC5)c4C)NC3=O)CC2)ccc1C [Example 50, (1s,4s)-N-(3-Methoxy-4-methylphenyl)-4-(5-methyl-6-(2-morpholinoethoxy)-2-oxo-1,2-dihydroquinazolin-3(4H)-yl)cyclohexanecarboxamide]
< 100 nM | COc1cc(NC(=O)[C@H]2CC[C@@H](N3Cc4c(Br)cncc4NC3=O)CC2)ccc1C [Example 91, (1s,4s)-4-(5-bromo-2-oxo-1,2-dihydropyrido[3,4-d]pyrimidin-3(4H)-yl)-N-(3-methoxy-4-methylphenyl)cyclohexanecarboxamide]
> 10000 nM | Cc1cccc2c1CN([C@H]1CC[C@@H](C(=O)Nc3ccn(C)c(=O)c3)CC1)C2=O [Example 252, (1s,4s)-4-(4-Methyl-1-oxoisoindolin-2-yl)-N-(1-methyl-2-oxo-1,2-dihydropyridin-4-yl)cyclohexanecarboxamide]
1000 to 10000 nM | C=Cc1ccc2c(c1C)CN([C@H]1CC[C@@H](C(=O)Nc3ccc(C)c(OC)c3)CC1)C(=O)N2 [Example 53, (1s,4s)-N-(3-methoxy-4-methylphenyl)-4-(5-methyl-2-oxo-6-vinyl-1,2-dihydroquinazolin-3(4H)-yl)cyclohexanecarboxamide]
100 to 1000 nM | COc1ncc(NC(=O)[C@H]2CC[C@@H](N3Cc4c(C)cccc4C3=O)CC2)cc1Cl [Example 221, (1s,4s)-N-(5-Chloro-6-methoxypyridin-3-yl)-4-(4-methyl-1-oxoisoindolin-2-yl)cyclohexanecarboxamide]
100 to 1000 nM | COc1cc(NC(=O)[C@H]2CC[C@@H](N3Cc4c(C)ccc(N5CC(C)(C#N)C5)c4NC3=O)CC2)ccc1C [Example 34, (1s,4s)-4-(8-(3-Cyano-3-methylazetidin-1-yl)-5-methyl-2-oxo-1,2-dihydroquinazolin-3(4H)-yl)-N-(3-methoxy-4-methylphenyl)cyclohexanecarboxamide]
> 10000 nM | Cc1cccc2c1CN([C@H]1CC[C@@H](C(=O)Nc3nc(C)c(C)s3)CC1)C2=O [Example 240, (1s,4s)-N-(4,5-Dimethylthiazol-2-yl)-4-(4-methyl-1-oxoisoindolin-2-yl)cyclohexanecarboxamide]
100 to 1000 nM | COc1cc(NC(=O)[C@H]2CC[C@@H](N3Cc4c(C)cccc4OC3=O)CC2)ccc1C [Example 115, (1s,4s)-N-(3-methoxy-4-methylphenyl)-4-(5-methyl-2-oxo-2H-benzo[e][1,3]oxazin-3(4H)-yl)cyclohexane-1-carboxamide]
1000 to 10000 nM | COc1cc(NC(=O)[C@H]2CC[C@@H](N3Cc4c(C=O)cccc4C3=O)CC2)ccc1C [Example 162, (1s,4s)-4-(4-Formyl-1-oxoisoindolin-2-yl)-N-(3-methoxy-4-methylphenyl)cyclohexanecarboxamide]
1000 to 10000 nM | CCc1cccc2c1CN([C@H]1CC[C@@H](C(=O)Nc3ccc(C)c(OC)c3)CC1)C2=O [Example 156, (1s,4s)-4-(4-Ethyl-1-oxoisoindolin-2-yl)-N-(3-methoxy-4-methylphenyl)cyclohexanecarboxamide]
100 to 1000 nM | COc1cc(NC(=O)N2CCC(N3Cc4ccccc4NC3=O)CC2)ccc1C [Example 64, N-(3-methoxy-4-methylphenyl)-4-(2-oxo-1,2-dihydroquinazolin-3(4H)-yl)piperidine-1-carboxamide]
100 to 1000 nM | COc1cc(NC(=O)[C@H]2CC[C@@H](N3Cc4c(Cl)cccc4N(C)C3=O)CC2)ccc1C [Example 73, (1s,4s)-4-(5-chloro-1-methyl-2-oxo-1,2-dihydroquinazolin-3(4H)-yl)-N-(3-methoxy-4-methylphenyl)cyclohexanecarboxamide]
> 10000 nM | COc1cc(NC(=O)[C@@H]2[C@@H]3C[C@H](N4Cc5c(Br)cccc5C4=O)C[C@@H]32)ccc1C (single isomer, unassigned) [Example 267]
1000 to 10000 nM | COc1cc(NC(=O)[C@H]2CC[C@@H](N3Cc4ccccc4C3=O)CC2)ccc1C [Example 148, (1s,4s)-N-(3-Methoxy-4-methylphenyl)-4-(1-oxoisoindolin-2-yl)cyclohexanecarboxamide]
< 100 nM | COc1cc(NC(=O)[C@H]2CC[C@@H](N3Cc4c(C)cc(NCCN(C)C)cc4C3=O)CC2)ccc1C [Example 208, (1s,4s)-4-(6-(2-(Dimethylamino)ethylamino)-4-methyl-1-oxoisoindolin-2-yl)-N-(3-methoxy-4-methylphenyl)cyclohexanecarboxamide]
